Data: patent US8778871B2 (Takeda Pharmaceutical Company Limited, priority 2004, dated 2014)
Non-standard residues stand in square brackets, D forms with d. Residues, ends and D or L forms follow the SMILES beside them. *: point of attachment. Propanoyl(3-(3-pyridyl)) = O=C(CCc1cccnc1)*; Arg(Me) = CNC(=N)NCCC[C@H](N)C(=O)O; d4Pal = N[C@H](Cc1ccncc1)C(=O)O; azaGly = NNC(=O)O

Tests used:
[1] = Action of reducing testosterone level in blood in mature male rat (1 mM peptide in 50% DMSO, ALZET osmotic pump); format: in vivo; conditions: 1 mM peptide in 50% DMSO aqueous solution, ALZET osmotic pump s.c., six days
[2] = Blood testosterone level decreasing effect in mature male rat (0.1 mM peptide solution); format: in vivo
[3] = Blood testosterone level decreasing effect in mature male rat (2 mM peptide solution, ALZET osmotic pump); format: in vivo; conditions: 2 mM peptide solution in distilled water, ALZET osmotic pump s.c., 6 days, Tables 28 and 29
Method: This peptide solution was filled in 5 ALZET osmotic pumps (Model 2001, 0.2 ml in volume, release rate: 0.001 ml/hr, DURECT Corporation). The ALZET pumps filled with the peptide solution were implanted subcutaneously in 5 CD(SD)IGS male rats of 9 weeks old after birth (Charles River Japan, Inc.) on the back under ether anesthesia by one pump for one animal. For negative control, distilled water (Otsuka Pharmaceutical Co., Ltd.) was filled in 5 ALZET osmotic pumps, which were similarly implanted in 5 male CD(SD)IGS rats (Charles River Japan, Inc.), respectively. These pump-implanted rats were fed for 6 days under normal feeding conditions. After weighing, the animal was decapitated to collect blood. After 0.03 ml/ml blood of aprotinin solution (Trasylol, Bayer) containing 0.1 mg/ml EDTA.2Na was added to blood, the mixture was centrifuged at 1,800 G for 25 minutes to isolate/recover plasma. From the plasma obtained, 0.05 ml was applied to radioimmunoassay (DPC.Total Testosterone Kit, Diagnostic Products Corporation) to measure the plasma testosterone level of each rat. The value below the limit of measurement (0.04 ng/ml of plasma level) in radioimmunoassay was treated as 0. A mean value of the testosterone levels from 5 rats receiving the peptide was calculated and a relative value (percent) of the mean value to a mean value from 5 rats receiving distilled water.

[4] = Effect of elevating sugar level by metastin derivatives (blood glucose and glucagon); format: in vivo, rat; conditions: Wistar male rats; for blood glucose level: i.v. 80 nmol/kg (FIG. 10); for blood glucagon level: i.v. 80 nmol/kg (FIG. 11)
From the text: The value indicates (mean±SE) (n=5). Symbol * designates that the P-value is 0.05 or less, when compared to the saline group and symbol ** designates that the P-value is 0.01 or less, when compared to the saline group.
In the figure, symbols open circle, closed circle and closed triangle designate blood glucagon level in the saline group and the 80 nmol/kg KiSS1-305 (Compound No. 305) group, the 80 nmol/kg KiSS1-322 (Compound No. 322) group, respectively. The value indicates (mean±SE) (n=5). Symbol * designates that the P-value is 0.05 or less, when compared to the saline group.
An operation was performed in free moving mature Wistar male rats (weighing […] at the time of operation) in a manner similar to TEST EXAMPLE 1 to collect blood. After the operation, the animal was maintained overnight. […] To prevent blood clotting, 3 μl of 300 KIU/ml aprotinin solution containing 3 mg/ml EDTA had previously been filled in the syringe. […] Blood was collected from the jugular vein by 300 μl each 2, 5, 15, 30, 45 and 60 minutes starting from the intravenous injection. The collected blood was centrifuged (13,000 rpm, 5 minutes) with a high speed refrigerated centrifuge (MR-150, Tomy Seiko Co, Ltd.) to recover the supernatant (plasma). Glucose level in blood was measured using Fuji Drychem 3500 (FUJI FILM) and glucagon level in blood was measured using a glucagon kit “Daiichi” (Daiichi Radioisotope Laboratories Ltd.), as in TEST EXAMPLE 1 or 2.

SMILES	Testosterone level in Blood [1] [%]	Teststerone level in Blood [2] [%]	Teststerone level in Blood [3] [%]	blood glucose level [4]	blood glucagon level [4]
CNC(=N)NCCC[C@H](NC(=O)[C@H](CC(C)C)NC(=O)NNC(=O)[C@H](Cc1ccccc1)NC(=O)[C@H](CO)NC(=O)[C@H](CC(N)=O)NC(=O)[C@@H](Cc1ccncc1)NC(=O)[C@H](N)Cc1ccc(O)cc1)C(=O)N[C@@H](Cc1ccccc1)C(N)=O [Compound No. 305, D-Tyr-D-Pya(4)-Asn-Ser-Phe-AzaGly-Leu-Arg(Me)-Phe-NH2] (H-[dY][d4Pal]NSF[azaGly]L[Arg(Me)]F-NH2)	2	48	2	increase in the blood glucose level	increase in the blood glucagon level
CNC(=N)NCCC[C@H](NC(=O)[C@H](CC(C)C)NC(=O)NNC(=O)[C@H](Cc1ccccc1)NC(=O)[C@H](CO)NC(=O)[C@H](CC(N)=O)NC(=O)CCc1cccnc1)C(=O)N[C@@H](Cc1ccccc1)C(N)=O [Compound No. 322, 3-(3-Pyridyl)propionyl-Asn-Ser-Phe-AzaGly-Leu-Arg(Me)-Phe-NH2] ({Propanoyl(3-(3-pyridyl))}-NSF[azaGly]L[Arg(Me)]F-NH2)				increase in the blood glucose level	increase in the blood glucagon level
